From ChEMBL document CHEMBL5303573, “Mapping human microbiome drug metabolism by gut bacteria and their genes” (Nature, 2019) come the findings set out here.

For one series the following is noted: victivallis vadensis, 12 h, 2 µM.
Description: The drug is tested on Victivallis vadensis strain: ATCC BAA-548 for biotransformation. The drug concentrations were measured before and after a 12-h incubation by liquid-chromatography-coupled mass spectrometry (LC–MS)
Take `Nc1ccc(/N=N/c2ccccc2)c(N)n1` [PHENAZOPYRIDINE]: the “Bacterial Biotransformation” value is “Compound metabolized”.
`CC(=O)OCC(=O)NCCCOc1cccc(CN2CCCCC2)c1` [ROXATIDINE ACETATE]: the “Bacterial Biotransformation” value is on record as “Compound metabolized”.
On the same count and under the same terms, with `CCS(=O)(=O)CCn1c([N+](=O)[O-])cnc1C` [TINIDAZOLE] the entry was “Compound metabolized”.

The conditions of the next series: bacteroides thetaiotaomicron, 12 h, 2 µM.
Description: The drug is tested on Bacteroides thetaiotaomicron strain: 7330 for biotransformation. The drug concentrations were measured before and after a 12-h incubation by liquid-chromatography-coupled mass spectrometry (LC–MS)
On to `Nc1ccc(/N=N/c2ccccc2)c(N)n1` [PHENAZOPYRIDINE], for which the “Bacterial Biotransformation” value is given as “Compound metabolized”.
The same measure, in the same setting: in the case of `CC(=O)OCC(=O)NCCCOc1cccc(CN2CCCCC2)c1` [ROXATIDINE ACETATE] it was “Compound metabolized”.
For `CCS(=O)(=O)CCn1c([N+](=O)[O-])cnc1C` [TINIDAZOLE], the “Bacterial Biotransformation” value was “Compound metabolized”.

The nature of another series: The drug is tested on Eubacterium ventriosum strain: ATCC27560 for biotransformation. The drug concentrations were measured before and after a 12-h incubation by liquid-chromatography-coupled mass spectrometry (LC–MS). More on the design: dose 2 uM, timepoint 0 vs 12 hours. The following applies: 2 µM. The series is classed as ADME.
Take `Nc1ccc(/N=N/c2ccccc2)c(N)n1` [PHENAZOPYRIDINE]: the “Bacterial Biotransformation” value is “Compound metabolized”.
As to `CC(=O)OCC(=O)NCCCOc1cccc(CN2CCCCC2)c1` [ROXATIDINE ACETATE], the “Bacterial Biotransformation” value was “Compound metabolized”.
Turning to `CCS(=O)(=O)CCn1c([N+](=O)[O-])cnc1C` [TINIDAZOLE], the “Bacterial Biotransformation” value is given as “Compound metabolized”.

A further series can be described thus: The drug is tested on Dorea formicigenerans strain: ATCC27755 for biotransformation. The drug concentrations were measured before and after a 12-h incubation by liquid-chromatography-coupled mass spectrometry (LC–MS). To be noted: 2 µM.
With `Nc1ccc(/N=N/c2ccccc2)c(N)n1` [PHENAZOPYRIDINE], the “Bacterial Biotransformation” value is recorded as “Compound metabolized”.
On to `CC(=O)OCC(=O)NCCCOc1cccc(CN2CCCCC2)c1` [ROXATIDINE ACETATE], for which the “Bacterial Biotransformation” value is recorded as “Compound metabolized”.
As to `CCS(=O)(=O)CCn1c([N+](=O)[O-])cnc1C` [TINIDAZOLE], the “Bacterial Biotransformation” value is “Compound metabolized”.

A further series is described as follows: The drug is tested on Blautia luti strain: DSM14534 for biotransformation. The drug concentrations were measured before and after a 12-h incubation by liquid-chromatography-coupled mass spectrometry (LC–MS). Format: ADME. More on the design: dose 2 uM, timepoint 0 vs 12 hours. To be noted: 2 µM.
In the case of `Nc1ccc(/N=N/c2ccccc2)c(N)n1` [PHENAZOPYRIDINE], the “Bacterial Biotransformation” value was “Compound metabolized”.
On the same count and under the same terms, with `CC(=O)OCC(=O)NCCCOc1cccc(CN2CCCCC2)c1` [ROXATIDINE ACETATE] the entry was “Compound metabolized”; with `CCS(=O)(=O)CCn1c([N+](=O)[O-])cnc1C` [TINIDAZOLE], “Compound metabolized”.

For another series the following is noted: segatella copri, 12 h, 2 µM.
Description: The drug is tested on Prevotella copri strain: DSM18205 for biotransformation. The drug concentrations were measured before and after a 12-h incubation by liquid-chromatography-coupled mass spectrometry (LC–MS)
On to `Nc1ccc(/N=N/c2ccccc2)c(N)n1` [PHENAZOPYRIDINE], for which the “Bacterial Biotransformation” value is “Compound metabolized”.
With `CC(=O)OCC(=O)NCCCOc1cccc(CN2CCCCC2)c1` [ROXATIDINE ACETATE], the “Bacterial Biotransformation” value is on record as “Compound metabolized”.
The same measure, in the same setting: in the case of `CCS(=O)(=O)CCn1c([N+](=O)[O-])cnc1C` [TINIDAZOLE] it was “Compound metabolized”.

The conditions of the next series: bacteroides eggerthii, 12 h, 2 µM.
Description: The drug is tested on Bacteroides eggerthii strain: DSM20697 for biotransformation. The drug concentrations were measured before and after a 12-h incubation by liquid-chromatography-coupled mass spectrometry (LC–MS)
Regarding `Nc1ccc(/N=N/c2ccccc2)c(N)n1` [PHENAZOPYRIDINE], the “Bacterial Biotransformation” value was “Compound metabolized”.
Same read-out and setting: with `CC(=O)OCC(=O)NCCCOc1cccc(CN2CCCCC2)c1` [ROXATIDINE ACETATE] the entry was “Compound metabolized”; with `CCS(=O)(=O)CCn1c([N+](=O)[O-])cnc1C` [TINIDAZOLE], “Compound metabolized”.

For another series the following is noted: akkermansia muciniphila, 12 h, 2 µM.
Description: The drug is tested on Akkermansia muciniphila strain: ATCC BAA-835 for biotransformation. The drug concentrations were measured before and after a 12-h incubation by liquid-chromatography-coupled mass spectrometry (LC–MS)
On to `CC(=O)OCC(=O)NCCCOc1cccc(CN2CCCCC2)c1` [ROXATIDINE ACETATE], for which the “Bacterial Biotransformation” value was “Compound NOT metabolized”.
`CCS(=O)(=O)CCn1c([N+](=O)[O-])cnc1C` [TINIDAZOLE]: the “Bacterial Biotransformation” value is on record as “Compound metabolized”.

A short description of another series: The drug is tested on Bacteroides vulgatus strain: ATCC8482 for biotransformation. The drug concentrations were measured before and after a 12-h incubation by liquid-chromatography-coupled mass spectrometry (LC–MS). To be noted: phocaeicola vulgatus, 2 µM.
For `Nc1ccc(/N=N/c2ccccc2)c(N)n1` [PHENAZOPYRIDINE], the “Bacterial Biotransformation” value is “Compound metabolized”.
Still for that read-out and setting: with `CC(=O)OCC(=O)NCCCOc1cccc(CN2CCCCC2)c1` [ROXATIDINE ACETATE] the entry was “Compound metabolized”; with `CCS(=O)(=O)CCn1c([N+](=O)[O-])cnc1C` [TINIDAZOLE], “Compound metabolized”.

The next series is described as follows: The drug is tested on Clostridium asparagiforme strain: DSM15981 for biotransformation. The drug concentrations were measured before and after a 12-h incubation by liquid-chromatography-coupled mass spectrometry (LC–MS). The series is classed as ADME. The following applies: enterocloster asparagiformis, 2 µM. On the set-up: dose 2 uM, timepoint 0 vs 12 hours.
As to `Nc1ccc(/N=N/c2ccccc2)c(N)n1` [PHENAZOPYRIDINE], the “Bacterial Biotransformation” value is recorded as “Compound metabolized”.
The same measure, in the same setting: in the case of `CC(=O)OCC(=O)NCCCOc1cccc(CN2CCCCC2)c1` [ROXATIDINE ACETATE] it was “Compound metabolized”; in that of `CCS(=O)(=O)CCn1c([N+](=O)[O-])cnc1C` [TINIDAZOLE], “Compound metabolized”.

A further series can be described thus: The drug is tested on Collinsella intestinalis strain: DSM13280 for biotransformation. The drug concentrations were measured before and after a 12-h incubation by liquid-chromatography-coupled mass spectrometry (LC–MS). The following applies: 2 µM.
As for `Nc1ccc(/N=N/c2ccccc2)c(N)n1` [PHENAZOPYRIDINE], the “Bacterial Biotransformation” value is listed as “Compound metabolized”.
Same read-out and setting: in the case of `CC(=O)OCC(=O)NCCCOc1cccc(CN2CCCCC2)c1` [ROXATIDINE ACETATE] it was “Compound metabolized”.
As for `CCS(=O)(=O)CCn1c([N+](=O)[O-])cnc1C` [TINIDAZOLE], the “Bacterial Biotransformation” value was “Compound metabolized”.

Another series is described as follows: The drug is tested on Bacteroides sp. WH2 strain: WH2 for biotransformation. The drug concentrations were measured before and after a 12-h incubation by liquid-chromatography-coupled mass spectrometry (LC–MS). To be noted: bacteroides sp. wh2, 12 h, 2 µM.
In the case of `Nc1ccc(/N=N/c2ccccc2)c(N)n1` [PHENAZOPYRIDINE], the “Bacterial Biotransformation” value is reported as “Compound metabolized”.
Same read-out and setting: in the case of `CC(=O)OCC(=O)NCCCOc1cccc(CN2CCCCC2)c1` [ROXATIDINE ACETATE] it was “Compound metabolized”; in that of `CCS(=O)(=O)CCn1c([N+](=O)[O-])cnc1C` [TINIDAZOLE], “Compound metabolized”.

A short description of another series: The drug is tested on Bacteroides fragilis strain: HMW610 for biotransformation. The drug concentrations were measured before and after a 12-h incubation by liquid-chromatography-coupled mass spectrometry (LC–MS). The following applies: 2 µM.
As for `Nc1ccc(/N=N/c2ccccc2)c(N)n1` [PHENAZOPYRIDINE], the “Bacterial Biotransformation” value is “Compound metabolized”.
As to `CC(=O)OCC(=O)NCCCOc1cccc(CN2CCCCC2)c1` [ROXATIDINE ACETATE], the “Bacterial Biotransformation” value is reported as “Compound metabolized”.
On the same count and under the same terms, in the case of `CCS(=O)(=O)CCn1c([N+](=O)[O-])cnc1C` [TINIDAZOLE] it was “Compound metabolized”.

A further series is described as follows: The drug is tested on Blautia hansenii strain: DSM20583 for biotransformation. The drug concentrations were measured before and after a 12-h incubation by liquid-chromatography-coupled mass spectrometry (LC–MS). The following applies: 2 µM.
In the case of `Nc1ccc(/N=N/c2ccccc2)c(N)n1` [PHENAZOPYRIDINE], the “Bacterial Biotransformation” value is “Compound metabolized”.
Still for that read-out and setting: with `CCS(=O)(=O)CCn1c([N+](=O)[O-])cnc1C` [TINIDAZOLE] the entry was “Compound metabolized”.

The nature of a further series: The drug is tested on Bacteroides cellulosilyticus strain: DSM14838 for biotransformation. The drug concentrations were measured before and after a 12-h incubation by liquid-chromatography-coupled mass spectrometry (LC–MS). The following applies: 2 µM.
For `Nc1ccc(/N=N/c2ccccc2)c(N)n1` [PHENAZOPYRIDINE], the “Bacterial Biotransformation” value was “Compound metabolized”.
On the same count and under the same terms, with `CC(=O)OCC(=O)NCCCOc1cccc(CN2CCCCC2)c1` [ROXATIDINE ACETATE] the entry was “Compound metabolized”.
As to `CCS(=O)(=O)CCn1c([N+](=O)[O-])cnc1C` [TINIDAZOLE], the “Bacterial Biotransformation” value was “Compound metabolized”.

The nature of a further series: The drug is tested on Bifidobacterium breve strain: DSM20213 for biotransformation. The drug concentrations were measured before and after a 12-h incubation by liquid-chromatography-coupled mass spectrometry (LC–MS). To be noted: 2 µM.
For the compound `Nc1ccc(/N=N/c2ccccc2)c(N)n1` [PHENAZOPYRIDINE], the “Bacterial Biotransformation” value is reported as “Compound metabolized”.
The same measure, in the same setting: with `CC(=O)OCC(=O)NCCCOc1cccc(CN2CCCCC2)c1` [ROXATIDINE ACETATE] the entry was “Compound metabolized”; with `CCS(=O)(=O)CCn1c([N+](=O)[O-])cnc1C` [TINIDAZOLE], “Compound metabolized”.

The conditions of a further series: bacteroides thetaiotaomicron, 12 h, 2 µM. This is another data set of the same source.
Description: The drug is tested on Bacteroides thetaiotaomicron strain: VPI-5482 for biotransformation. The drug concentrations were measured before and after a 12-h incubation by liquid-chromatography-coupled mass spectrometry (LC–MS)
For the compound `Nc1ccc(/N=N/c2ccccc2)c(N)n1` [PHENAZOPYRIDINE], the “Bacterial Biotransformation” value is recorded as “Compound metabolized”.
Turning to `CC(=O)OCC(=O)NCCCOc1cccc(CN2CCCCC2)c1` [ROXATIDINE ACETATE], the “Bacterial Biotransformation” value is “Compound metabolized”.
Still for that read-out and setting: in the case of `CCS(=O)(=O)CCn1c([N+](=O)[O-])cnc1C` [TINIDAZOLE] it was “Compound metabolized”.

The conditions of the next series: roseburia intestinalis, 12 h, 2 µM.
Description: The drug is tested on Roseburia intestinalis strain: L1-82 for biotransformation. The drug concentrations were measured before and after a 12-h incubation by liquid-chromatography-coupled mass spectrometry (LC–MS)
In the case of `Nc1ccc(/N=N/c2ccccc2)c(N)n1` [PHENAZOPYRIDINE], the “Bacterial Biotransformation” value is on record as “Compound metabolized”.
For the compound `CC(=O)OCC(=O)NCCCOc1cccc(CN2CCCCC2)c1` [ROXATIDINE ACETATE], the “Bacterial Biotransformation” value is listed as “Compound metabolized”.
The same measure, in the same setting: in the case of `CCS(=O)(=O)CCn1c([N+](=O)[O-])cnc1C` [TINIDAZOLE] it was “Compound metabolized”.

Another series in a line: The drug is tested on Subdoligranulum variabile strain: DSM15176 for biotransformation. The drug concentrations were measured before and after a 12-h incubation by liquid-chromatography-coupled mass spectrometry (LC–MS). To be noted: 2 µM.
With `Nc1ccc(/N=N/c2ccccc2)c(N)n1` [PHENAZOPYRIDINE], the “Bacterial Biotransformation” value is given as “Compound metabolized”.
As for `CC(=O)OCC(=O)NCCCOc1cccc(CN2CCCCC2)c1` [ROXATIDINE ACETATE], the “Bacterial Biotransformation” value is “Compound metabolized”.
As for `CCS(=O)(=O)CCn1c([N+](=O)[O-])cnc1C` [TINIDAZOLE], the “Bacterial Biotransformation” value is recorded as “Compound metabolized”.

The nature of the next series: The drug is tested on Escherichia coli strain: BW25113 for biotransformation. The drug concentrations were measured before and after a 12-h incubation by liquid-chromatography-coupled mass spectrometry (LC–MS). The following applies: 2 µM.
For `CC(=O)OCC(=O)NCCCOc1cccc(CN2CCCCC2)c1` [ROXATIDINE ACETATE], the “Bacterial Biotransformation” value is listed as “Compound metabolized”.
